# Source: patent US10759813B2, “Neprilysin inhibitors” (THERAVANCE BIOPHARMA R&D IP, LLC, priority 2010, dated 2020)
# Molecular target: human neprilysin (EC 3.4.24.11; NEP) (Homo sapiens (Human), UniProt P08473)
# Test: In vitro enzyme inhibition assay at human NEP (fluorogenic peptide substrate)
# Type: biochemical
# Conditions: pKi values at human NEP, recombinant human NEP
# Outline: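 pKi derived from apparent Ki fitted as v=v0/[1+(I/K′)] to Ex320/Em405 fluorescence. Compounds (pM to 10 μM) sat with recombinant human enzyme 30 min at 37 °C before 10 μM fluorogenic Mca peptide was added in HEPES pH 7.5 buffer with 10 μM ZnSO4; 20 min reaction, acetic acid quench.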
# Sequence of human neprilysin (EC 3.4.24.11; NEP) (P08473 52-750): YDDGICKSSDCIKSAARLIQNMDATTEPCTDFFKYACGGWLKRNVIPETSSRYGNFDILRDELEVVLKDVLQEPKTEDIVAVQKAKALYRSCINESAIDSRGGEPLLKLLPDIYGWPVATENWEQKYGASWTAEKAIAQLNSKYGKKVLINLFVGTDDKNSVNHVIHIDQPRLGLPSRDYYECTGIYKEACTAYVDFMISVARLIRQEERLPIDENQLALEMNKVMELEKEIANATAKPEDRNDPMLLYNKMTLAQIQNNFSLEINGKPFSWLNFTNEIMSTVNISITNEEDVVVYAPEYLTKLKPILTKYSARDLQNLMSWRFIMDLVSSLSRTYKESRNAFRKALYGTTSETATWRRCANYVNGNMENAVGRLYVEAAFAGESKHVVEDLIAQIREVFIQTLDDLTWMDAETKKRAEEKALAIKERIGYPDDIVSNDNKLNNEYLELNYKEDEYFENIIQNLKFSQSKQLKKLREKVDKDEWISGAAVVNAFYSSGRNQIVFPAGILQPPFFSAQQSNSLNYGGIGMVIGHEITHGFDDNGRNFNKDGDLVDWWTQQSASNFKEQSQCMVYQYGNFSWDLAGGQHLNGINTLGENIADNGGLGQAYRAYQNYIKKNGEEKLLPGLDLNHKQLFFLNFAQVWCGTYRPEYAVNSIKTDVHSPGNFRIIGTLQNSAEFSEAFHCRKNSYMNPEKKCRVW
Structure (SMILES),pKi,Ki [nM]
"O=C(N[C@H](Cc1ccc(-c2cccc(Cl)c2)cc1)C[C@@H](O)C(=O)O)c1cc(O)n(-c2ccccc2F)n1 [Example 18-38, (2R,4R)-5-(3′-Chloro-biphenyl-4-yl)-4-{[1-(2-fluoro-phenyl)-5-hydroxy-1H-pyrazole-3-carbonyl]-amino}-2-hydroxy-pentanoic acid]",≥9.0,
"COc1ccc(-c2cc(C(=O)N[C@H](Cc3ccc(-c4ccccc4)cc3)C[C@@H](O)C(=O)O)no2)cc1 [Example 12-20, (2R,4R)-5-Biphenyl-4-yl-2-hydroxy-4-{[5-(4-methoxy-phenyl)-isoxazole-3-carbonyl]-amino}-pentanoic acid]",,1.26 to 10
"CC(C)CN(C)C(=O)c1cc(C(=O)N[C@H](Cc2ccc(-c3ccccc3)cc2)C[C@@H](O)C(=O)O)[nH]n1 [Example 15-67, (2R,4R)-5-Biphenyl-4-yl-2-hydroxy-4-{[5-(isobutylmethyl-carbamoyl)-2H-pyrazole-3-carbonyl]amino}-pentanoic acid]",≥9.0,
"O=C(N[C@H](Cc1ccc(-c2ccccc2)cc1)C[C@@H](O)C(=O)O)c1cc(-c2ccc(Cl)c(Cl)c2)no1 [Example 12-12, (2R,4R)-5-Biphenyl-4-yl-4-{[3-(3,4-dichlorophenyl)-isoxazole-5-carbonyl]-amino}-2-hydroxy-pentanoic acid]",,1.26 to 10
"O=C(N[C@H](Cc1ccc(-c2ccccc2)cc1)C[C@@H](O)C(=O)O)c1nc(-c2ccccc2Cl)no1 [Example 12-26, (2R,4R)-5-Biphenyl-4-yl-4-{[3-(2-chlorophenyl)-[1,2,4]oxadiazole-5-carbonyl]-amino}-2-hydroxy-pentanoic acid]",,1.26 to 10
"O=C(N[C@H](Cc1ccc(-c2cccc(Cl)c2)cc1)C[C@@H](O)C(=O)O)c1ccc(=O)n(Cc2ccccc2)n1 [Example 18-48, (2R,4R)-4-[(1-Benzyl-6-oxo-1,6-dihydro-pyridazine-3-carbonyl)-amino]-5-(3′-chlorobiphenyl-4-yl)-2-hydroxy-pentanoic acid]",,1.26 to 10
"O=C(N[C@H](Cc1ccc(-c2ccccc2)cc1)CC(O)C(=O)O)c1cc(C(=O)O)n(Cc2ccccc2Cl)n1 (stereo partly drawn) [Example 15-9, 5-((R)-1-Biphenyl-4-ylmethyl-3-carboxy-3-hydroxy-propylcarbamoyl)-2-(2-chlorobenzyl)-2H-pyrazole-3-carboxylic acid]",,1.26 to 10
"O=C(O)Cn1nc(C(=O)N[C@H](Cc2ccc(-c3ccccc3)cc2)C[C@@H](O)C(=O)O)cc1-c1ccccc1 [Example 15-35, (2R,4R)-5-Biphenyl-4-yl-4-[(1-carboxymethyl-5-phenyl-1H-pyrazole-3-carbonyl)-amino]-2-hydroxy-pentanoic acid]",≥9.0,
"O=C(N[C@H](Cc1ccc(-c2ccccc2)cc1)CC(O)C(=O)O)c1nnc(-c2ccccn2)[nH]1 (stereo partly drawn) [Example 10-10, (R)-5-Biphenyl-4-yl-2-hydroxy-4-[(5-pyridin-2-yl-4H-[1,2,4]triazole-3-carbonyl)amino]pentanoic acid]",,1.26 to 10
"Cn1cc(-c2cc(C(=O)N[C@H](Cc3ccc(-c4ccccc4)cc3)C[C@@H](O)C(=O)O)on2)cn1 [Example 12-10, (2R,4R)-5-Biphenyl-4-yl-2-hydroxy-4-{[3-(1-methyl-1H-pyrazol-4-yl)-isoxazole-5-carbonyl]-amino}-pentanoic acid]",,1.26 to 10
"O=C(N[C@H](Cc1ccc(-c2cccc(Cl)c2)cc1)C[C@@H](O)C(=O)O)c1nn(-c2ccc(F)cc2)c(=O)[nH]1 [Example 18-44, (2R,4R)-5-(3′-Chloro-biphenyl-4-yl)-4-{[1-(4-fluoro-phenyl)-5-oxo-4,5-dihydro-1H-[1,2,4]triazole-3-carbonyl]-amino}-2-hydroxy-pentanoic acid]",≥9.0,
"O=C(N[C@H](Cc1ccc(-c2ccccc2)cc1)CC(O)C(=O)O)c1ccc2[nH]nnc2c1Cl (stereo partly drawn) [Example 11-7, (R)-5-Biphenyl-4-yl-4-[(4-chloro-1H-benzotriazole-5-carbonyl)amino]-2-hydroxy-pentanoic acid]",,1.26 to 10
"O=C(N[C@H](Cc1ccc(-c2ccccc2)cc1)C[C@@H](O)C(=O)O)c1cc(CO)[nH]n1 [Example 15-3, (2R,4R)-5-Biphenyl-4-yl-2-hydroxy-4-[(5-hydroxymethyl-1H-pyrazole-3-carbonyl)-amino]-pentanoic acid]",,1.26 to 10
"O=C(NCCO)c1cc(C(=O)N[C@H](Cc2ccc(-c3ccccc3)cc2)CC(O)C(=O)O)[nH]n1 (stereo partly drawn) [Example 15-70, (R)-5-Biphenyl-4-yl-2-hydroxy-4-{[5-(2-hydroxy-ethylcarbamoyl)-2H-pyrazole-3-carbonyl]-amino}-pentanoic acid]",,1.26 to 10
"O=C(N[C@H](Cc1ccc(-c2cccc(Cl)c2)cc1)C[C@@H](O)C(=O)O)c1ccc2nnn(O)c2c1 [Example 18-3, (2R,4R)-5-(3′-Chlorobiphenyl-4-yl)-2-hydroxy-4-[(3-hydroxy-3H-benzotriazole-5-carbonyl)-amino]-pentanoic acid]",≥9.0,
"O=C(N[C@H](Cc1ccc(-c2ccccc2)cc1)C[C@@H](O)C(=O)O)c1cc(-c2cccc(Cl)c2)[nH]n1 [Example 15-25, (2R,4R)-5-Biphenyl-4-yl-4-{[5-(3-chlorophenyl)-1H-pyrazole-3-carbonyl]-amino}-2-hydroxy-pentanoic acid]",≥9.0,
"O=C(O)c1ccc(C(=O)N[C@H](Cc2ccc(-c3ccccc3)cc2)CC(O)C(=O)O)nc1 (stereo partly drawn) [Example 13-7, 6-((R)-1-Biphenyl-4-ylmethyl-3-carboxy-3-hydroxypropylcarbamoyl)nicotinic acid]",,12.6 to 100
"O=C(N[C@H](Cc1ccc(-c2ccccc2)cc1)CC(O)C(=O)O)c1cc(C(=O)O)n(Cc2ccc(Cl)c(SC(F)(F)F)c2)n1 (stereo partly drawn) [Example 15-6, 5-((R)-1-Biphenyl-4-ylmethyl-3-carboxy-3-hydroxypropylcarbamoyl)-2-(4-chloro-3-trifluoromethylsulfanyl-benzyl)-2H-pyrazole-3-carboxylic acid]",,12.6 to 100
"O=C(N[C@H](Cc1ccc(-c2ccccc2)cc1)C[C@@H](O)C(=O)O)c1noc(=O)[nH]1 [Example 12-27, (2R,4R)-5-Biphenyl-4-yl-2-hydroxy-4-[(5-oxo-4,5-dihydro-[1,2,4]oxadiazole-3-carbonyl)-amino]-pentanoic acid]",≥9.0,
"O=C(N[C@H](Cc1ccc(-c2ccccc2)cc1)CC(O)C(=O)O)c1ccc(O)nn1 (stereo partly drawn) [Example 13-5, (R)-5-Biphenyl-4-yl-2-hydroxy-4-[(6-hydroxypyridazine-3-carbonyl)-amino]-pentanoic acid]",,12.6 to 100
"O=C(N[C@H](Cc1ccc(-c2cccc(Cl)c2)cc1)C[C@@H](O)C(=O)O)c1cn(O)nn1 [Example 17-A, (2R,4R)-5-(3′-Chlorobiphenyl-4-yl)-2-hydroxy-4-[(1-hydroxy-1H-[1,2,3]triazole-4-carbonyl)-amino]pentanoic Acid]",,≤ 1
"O=C(N[C@H](Cc1ccc(-c2ccccc2)cc1)CC(O)C(=O)O)c1nc[nH]n1 (stereo partly drawn) [Example 10-6, (R)-5-Biphenyl-4-yl-2-hydroxy-4-[(1H-[1,2,4]triazole-3-carbonyl)amino]pentanoic acid]",,12.6 to 100
"O=C(N[C@H](Cc1ccc(-c2ccccc2)cc1)CC(O)C(=O)O)c1cc(-c2ccccc2C(F)(F)F)n[nH]1 (stereo partly drawn) [Example 15-81, (R)-5-Biphenyl-4-yl-2-hydroxy-4-{[5-(2-trifluoromethyl-phenyl)-2H-pyrazole-3-carbonyl]-amino}-pentanoic acid]",,12.6 to 100
